pEC50: −log10 of the molar value.
What was measured:
5-HT2A [1] = molecular target: T1, 5-HT2A (Homo sapiens, UniProt P28223); experiment: Gq activation via Gq/γ1 dissociation BRET, 5-HT2A; format: cell-based; details: HEK293T cells; for pEC50: Gq dissociation BRET2, 1 hour at 37° C.; for Emax: HEK-293T, Gq dissociation BRET2, normalized to % 5-HT stimulation
T1 construct: expressed in transfected cells; host or cells: HEK293T
Text: (§1) To measure 5-HT2 receptor-mediated Gq activation via Gq/y1 dissociation as measured by Bioluminescence Resonance Energy Transfer (BRET) (McCorvy JD, Wacker D, Wang S, Agegnehu B, Liu J, Lansu K, Tribo A R, Olsen R HJ, Che T, Jin J, Roth B L. Structural determinants of 5-HT2B receptor activation and biased agonism. Nat Struct Mo/ Biol. 2018; 25(9): 787-96), HEK293T cells were sub-cultured in Dulbecco's Modified Eagle Medium (DMEM) supplemented with 10% dialyzed fetal bovine serum (FBS) and were co-transfected in a 1:1:1:1 ratio with Rluc8-fused human Gaq (Gaq-Rluc8), a GFP2-fused to the C-terminus of human Gy1(Gy1-GFP2), human G131, and 5-HT2 receptor using TransiT-2020. After at least 18-24 hours, transfected cells were plated in poly-lysine coated 96-well white clear bottom cell culture plates in DMEM containing 1% dialyzed FBS at a density of 25,000-40,000 cells in 200 μL per well and incubated overnight. The following day, medium was decanted, and cells were washed with 60 μL of drug buffer (1×HBSS, 20 mM HEPES, pH 7.4), then 60 μL of drug buffer was added per well. Cells were pre-incubated at in a humidified atmosphere at 37° C. before receiving drug stimulation. Drug stimulation utilized 30 μL addition of drug (3×) diluted in McCorvy buffer (1×HBSS, 20 mM HEPES, pH 7.4, supplemented with 0.3% BSA fatty acid free, 0.03% ascorbic acid) and plates were incubated at for 1 hour at 37° C. Substrate addition occurred 15 minutes before reading and utilized 10 μL of the Rluc substrate coelenterazine 400a for Gq dissociation BRET^2 (Prolume/Nanolight, 5 μM final concentration). Plates were read for luminescence at 400 nm and fluorescent GFP2 emission at 510 nm at 1 second per well using a Mithras LB940 multimode microplate reader (e.g. one provided by Berthold). The BRET ratios of fluorescence/luminescence were calculated per well and were plotted as a function of drug concentration using Graphpad Prism 8 (Graphpad Software Inc., San Diego, CA). Data were normalized to % 5-HT stimulation and analyzed using nonlinear regression “log(agonist) vs. response” to yield Emax and EC50 parameter estimates. Results are shown in Table 8, where A=<10; B=10 to <100; C=100 to 1000 and D=>1000; +++=>70%; ++=50 to 70%; and +=<50%; NC=not calculated. […] Hallucinogenic (“Hall”) or non-hallucinogenic (“N-Hall”) plastogenic effect is predicted for compounds based on the level 5-HT2A agonist efficacy.

5-HT2B = molecular target: T2, 5-HT2B (Homo sapiens, UniProt P41595); experiment: Gq activation via Gq/γ1 dissociation BRET, 5-HT2B; format: cell-based; details: HEK293T cells, AT* = data suggests antagonistic effect at 5-HT2B (footnote); for Emax: HEK-293T, Gq dissociation BRET2, normalized to % 5-HT stimulation
T2 construct: expressed in transfected cells; host or cells: HEK293T
T2 sequence (P41595 whole entry): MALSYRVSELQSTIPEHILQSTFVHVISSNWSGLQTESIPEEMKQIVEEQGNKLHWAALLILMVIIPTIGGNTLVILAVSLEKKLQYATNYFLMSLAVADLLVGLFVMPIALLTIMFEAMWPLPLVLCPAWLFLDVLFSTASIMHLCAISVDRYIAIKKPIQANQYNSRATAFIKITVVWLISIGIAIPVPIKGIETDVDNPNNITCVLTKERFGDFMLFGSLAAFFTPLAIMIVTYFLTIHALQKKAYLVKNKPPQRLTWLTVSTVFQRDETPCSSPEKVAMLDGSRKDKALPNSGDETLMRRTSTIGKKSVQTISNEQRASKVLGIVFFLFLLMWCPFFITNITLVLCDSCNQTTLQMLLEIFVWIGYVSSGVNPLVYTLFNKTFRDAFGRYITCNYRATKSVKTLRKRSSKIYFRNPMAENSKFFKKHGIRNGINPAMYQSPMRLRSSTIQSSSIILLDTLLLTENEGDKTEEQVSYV
Text: as §1

5-HT2C [2] = molecular target: T3, 5-HT2C (Homo sapiens, UniProt P28335); experiment: Gq signaling bias for 5-HT2C (Gq-coupled versus B-arrestin signaling); format: cell-based; details: primary signaling for 5-HT2C via Gq-coupled mechanism compared to B-arrestin
T3 sequence (P28335 33-458): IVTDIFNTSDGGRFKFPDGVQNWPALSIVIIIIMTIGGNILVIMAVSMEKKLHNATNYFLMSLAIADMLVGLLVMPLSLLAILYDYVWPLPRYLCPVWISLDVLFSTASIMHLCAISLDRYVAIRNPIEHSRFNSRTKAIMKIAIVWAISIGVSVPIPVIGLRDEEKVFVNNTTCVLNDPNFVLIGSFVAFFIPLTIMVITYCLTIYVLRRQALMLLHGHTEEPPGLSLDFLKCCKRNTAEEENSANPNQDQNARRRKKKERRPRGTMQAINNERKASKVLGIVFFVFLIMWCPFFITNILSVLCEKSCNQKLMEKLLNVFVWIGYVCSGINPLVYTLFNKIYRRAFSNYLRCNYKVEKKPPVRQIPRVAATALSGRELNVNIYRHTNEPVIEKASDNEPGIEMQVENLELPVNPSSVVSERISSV
Text: as §1

5-HT2A [3] = molecular target: T1, 5-HT2A; experiment: Predicted hallucinogenic or non-hallucinogenic plastogenic effect based on 5-HT2A agonist efficacy; details: hallucinogenic (Hall) or non-hallucinogenic (N-Hall) plastogenic effect predicted from level of 5-HT2A agonist efficacy
Text: as §1

5-HT2C [4] = molecular target: T3, 5-HT2C; experiment: Gq activation via Gq/γ1 dissociation BRET, 5-HT2C; format: cell-based; set-up: expressed in transfected cells; host or cells: HEK293T; details: for Emax: HEK-293T, read-out: 5-HT2C Emax (%)
Text: as §1

[5] = Gq dissociation BRET2, 1 hour at 37° C.

T1 sequence (P28223 whole entry): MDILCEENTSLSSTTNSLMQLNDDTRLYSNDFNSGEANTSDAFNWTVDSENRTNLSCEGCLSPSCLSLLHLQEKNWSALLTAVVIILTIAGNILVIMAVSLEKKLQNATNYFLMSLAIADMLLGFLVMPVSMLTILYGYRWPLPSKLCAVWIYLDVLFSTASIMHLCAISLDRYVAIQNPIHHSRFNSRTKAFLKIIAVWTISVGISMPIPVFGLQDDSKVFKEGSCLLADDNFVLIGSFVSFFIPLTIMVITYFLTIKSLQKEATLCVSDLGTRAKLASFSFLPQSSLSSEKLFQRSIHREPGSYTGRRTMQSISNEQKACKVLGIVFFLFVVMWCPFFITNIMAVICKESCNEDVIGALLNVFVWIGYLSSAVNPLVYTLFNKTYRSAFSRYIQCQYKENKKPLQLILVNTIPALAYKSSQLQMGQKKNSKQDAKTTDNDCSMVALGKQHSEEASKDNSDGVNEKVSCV

Question: Which results are given for `C1=C(c2csc3ccccc23)CNC1`?
Answer: pEC50 (5-HT2A [1]): 7.00 to 8.00; Emax (5-HT2A [1]): > 70%; Emax (5-HT2B): < 50%; Gq signaling bias? (5-HT2C [2]): Yes; Hall or N-Hall? (5-HT2A [3]): Hall; pEC50 (5-HT2C [4]): > 8.00; Emax (5-HT2C [4]): > 70%

Question: What does the source list for `Cl.c1ccc2c(C3CCNC3)csc2c1` (stereo not shown)?
Answer: pEC50 (5-HT2A [1]): 6.00 to 7.00; Emax (5-HT2A [1]): 50 to 70%; Emax (5-HT2B): < 50%; Gq signaling bias? (5-HT2C [2]): Yes; Hall or N-Hall? (5-HT2A [3]): N-Hall; pEC50 (5-HT2C [4]): 7.00 to 8.00; Emax (5-HT2C [4]): > 70%

Question: Which results are given for `Fc1cnc2[nH]cc(C3=CCNC3)c2c1`?
Answer: pEC50 (5-HT2A [1]): 6.00 to 7.00; Emax (5-HT2A [1]): > 70%; pEC50 (5-HT2B; [5]): 6.00 to 7.00; Emax (5-HT2B): > 70%; Gq signaling bias? (5-HT2C [2]): No; Hall or N-Hall? (5-HT2A [3]): Hall; pEC50 (5-HT2C [4]): 7.00 to 8.00; Emax (5-HT2C [4]): > 70%

Question: `C1=C(c2c[nH]c3ncccc23)CNC1` was tested. Which Emax (5-HT2A [1]) did it give?
Answer: Its Emax is under 50%.

Question: And the Emax (5-HT2B)?
Answer: The Emax was under 50%.

Question: What about the “Gq signaling bias?” value (5-HT2C [2]) of the same compound?
Answer: The value was “No”.

Question: What about the “Hall or N-Hall?” value (5-HT2A [3]) of the same compound?
Answer: Its value is “N-Hall”.

Question: What about the Emax (5-HT2C [4]) of the same compound?
Answer: Its Emax is under 50%.

Question: Which results are given for `CN1CC=C(c2csc3ccccc23)C1`?
Answer: pEC50 (5-HT2A [1]): 7.00 to 8.00; Emax (5-HT2A [1]): 50 to 70%; pEC50 (5-HT2B; [5]): < 6.00; Emax (5-HT2B): < 50%; pEC50 (5-HT2C [4]): > 8.00; Emax (5-HT2C [4]): > 70%

Question: How did the pEC50 (5-HT2A [1]) turn out when `CN1CC=C(c2csc3cc(F)ccc23)C1` was run?
Answer: The pEC50 was 6.00 to 7.00.

Question: What about the Emax (5-HT2A [1]) of the same compound?
Answer: Its Emax is under 50%.

Question: What about the “5-HT2B EC50 (nM)” value (5-HT2B; [5]) of the same compound?
Answer: Its value is “AT*”.

Question: What about the pEC50 (5-HT2C [4]) of the same compound?
Answer: Its pEC50 is 7.00 to 8.00.

Question: And the Emax (5-HT2C [4])?
Answer: Its Emax is 50 to 70%.

Question: `CN1CC(c2csc3ccccc23)C1.Cl` was tested. Which pEC50 (5-HT2A [1]) did it give?
Answer: The pEC50 was under 6.00.

Question: And the Emax (5-HT2A [1])?
Answer: Its Emax is under 50%.

Question: And the pEC50 (5-HT2B; [5])?
Answer: Its pEC50 is 6.00 to 7.00.

Question: And the Emax (5-HT2B)?
Answer: Its Emax is under 50%.

Question: And the “Gq signaling bias?” value (5-HT2C [2])?
Answer: Its value is “Yes”.

Question: And the “Hall or N-Hall?” value (5-HT2A [3])?
Answer: Its value is “N-Hall”.

Question: And the pEC50 (5-HT2C [4])?
Answer: Its pEC50 is 7.00 to 8.00.

Question: And the Emax (5-HT2C [4])?
Answer: Its Emax is over 70%.

— US20250289817A1, “SEROTONIN RECEPTOR MODULATORS AND METHODS OF MAKING AND USING THE SAME” (Kuleon LLC, priority 2022, published 2025)
